In patent US20180042249A1, “METHOD FOR REDUCTION IN MICROBIAL ACTIVITY IN POULTRY PROCESSING” (Zeco, Inc., priority 2014, published 2018):

Test system: bacterial count on poultry carcasses (chicken samples)
Assay: Antimicrobial efficacy of elevated concentration and temperature application of PAA to poultry carcasses (average bacterial count reduction)
Format: cell-based
Protocol: As summarized in Table 1 below, ten chicken samples were treated with an elevated peroxyacetic acid concentration at an elevated temperature for a specified period of time using either an equilibrium peroxyacetic acid intervention solution or a pH modified peroxyacetic acid intervention solution. […] The treated poultry carcasses were measured for the average bacterial count reduction as a result of the elevated peroxyacetic acid concentration and elevated temperature.

peroxyacetic acid [PAA]
Average % Reduction (bacterial count) (PAA 500 ppm, 72 °F, 10 seconds exposure, pH 7.7 (pH modified PAA solution)): 97.34%
Average % Reduction (bacterial count) (PAA 500 ppm, 72 °F, 10 seconds exposure, pH ~3 (equilibrium PAA solution)): 70.57%
Average % Reduction (bacterial count) (PAA 500 ppm, 125 °F, 7 seconds exposure, pH 7.7 (pH modified PAA solution)): 93.68%
Average % Reduction (bacterial count) (PAA 500 ppm, 125 °F, 7 seconds exposure, pH ~3 (equilibrium PAA solution)): 77.26%
Average % Reduction (bacterial count) (PAA 600 ppm, 125 °F, 7 seconds exposure, pH 7.7 (pH modified PAA solution)): 89.34%
Average % Reduction (bacterial count) (PAA 600 ppm, 125 °F, 7 seconds exposure, pH ~3 (equilibrium PAA solution)): 61.94%
Average % Reduction (bacterial count) (PAA 700 ppm, 125 °F, 7 seconds exposure, pH 7.7 (pH modified PAA solution)): 97.87%
Average % Reduction (bacterial count) (PAA 700 ppm, 125 °F, 7 seconds exposure, pH ~3 (equilibrium PAA solution)): 92.27%
bacterial count reduction (elevated PAA concentration and temperature, period of time of at least 7 seconds (summary of Table 1)): ≥ 60%
